According to PMC12707263 (ACS Pharmacology & Translational Science, 2025):
“Also recorded” adds a separate entry of the source.

Key:
OCI-Ly10 cells = test: Pairwise 10 × 10 matrix combination with venetoclax, Cell Titer Glo viability; details: for synergistic cell killing when combined with venetoclax: ΔBlissSum
[1] = system: 24 kinase targets associated with B-cell malignancy signaling cascades; test: HotSpot profile across the panel; format: biochemical
[2] = reported values; ref not given; cited from earlier work
REC-1 cells = test: Pairwise 10 × 10 matrix combination with venetoclax, Cell Titer Glo viability; details: venetoclax 10000 nM to 39 nM
HBL1 cells = test: as above; details: venetoclax 1000 nM to 3.9 nM

SMILES | synergistic cell killing when combined with venetoclax (OCI-Ly10 cells) | off-target profile across the 24 kinase panel [1] | fraction unbound (FU) [2] [% FU] | other results
CC(C)(/C=C(\C#N)C(=O)N1CCC[C@@H](n2nc(-c3ccc(Oc4ccccc4)cc3F)c3c(N)ncnc32)C1)N1CCN(C2COC2)CC1 [Rilzabrutinib] | similar, broad synergistic cell killing across multiple concentration ranges | remarkably free of any additional off target activity |  | 
C=CC(=O)N(C)CCOc1c(N)ncnc1-c1cc(F)cc(NC(=O)c2ccc(C3CC3)cc2F)c1C [Remibrutinib] | similar, broad synergistic cell killing across multiple concentration ranges | most selective; also recorded: remarkably free of any additional off target activity |  | 
CC#CC(=O)N1CC[C@@H](n2c(=O)n(-c3ccc(Oc4ccccc4)cc3)c3c(N)ncnc32)C1 [Tirabrutinib] |  | most selective; also recorded: remarkably free of any additional off target activity | 8.3 | 
C=CC(=O)N1CCC[C@@H](n2nc(-c3ccc(Oc4ccccc4)cc3)c3c(N)ncnc32)C1 [Ibrutinib] |  | most promiscuous beyond BMX and BLK |  | 
CC1(C)CCC(CN2CCN(c3ccc(C(=O)NS(=O)(=O)c4ccc(NCC5CCOCC5)c([N+](=O)[O-])c4)c(Oc4cnc5[nH]ccc5c4)c3)CC2)=C(c2ccc(Cl)cc2)C1 [Venetoclax] |  |  |  | single agent activity (cytotoxicity) (REC-1 cells): no single agent activity; single agent activity (cytotoxicity) (OCI-Ly10 cells; venetoclax 1000 nM to 3.9 nM): no single agent activity; single agent activity (cytotoxicity) (HBL1 cells): no single agent activity
CC#CC(=O)N[C@H]1CCCN(c2c(F)cc(C(N)=O)c3[nH]c(C)c(C)c23)C1 [Branebrutinib] |  | remarkably free of any additional off target activity | 1.2 | 
C=CC(=O)Nc1cccc(Oc2nc(Nc3ccc(N4CCN(C)CC4)cc3)nc3ccoc23)c1 [Poseltinib] | more focal in nature | most promiscuous beyond BMX and BLK |  | 
C=CC(=O)N1CCC([C@@H]2CCNc3c(C(N)=O)c(-c4ccc(Oc5ccccc5)cc4)nn32)CC1 [Zanubrutinib] | similar, broad synergistic cell killing across multiple concentration ranges | most promiscuous beyond BMX and BLK | 6 | 
C[C@H]1CN(C2COC2)CCN1c1ccc(Nc2cc(-c3ccnc(N4CCn5c(cc6c5CC(C)(C)C6)C4=O)c3CO)cn(C)c2=O)nc1 [Fenebrutinib] |  | most selective; also recorded: remarkably free of any additional off target activity |  | 
C=CC(=O)N1CCC(CNc2ncnc(N)c2-c2ccc(Oc3ccccc3)cc2)CC1 [Evobrutinib] |  | remarkably free of any additional off target activity |  | 
CC#CC(=O)N1CCC[C@H]1c1nc(-c2ccc(C(=O)Nc3ccccn3)cc2)c2c(N)nccn12 [Acalabrutinib] | more focal in nature | most selective; also recorded: remarkably free of any additional off target activity | 2.5 | 
